These results are taken from patent US9725445B2, “Cycloalkyl nitrile pyrazolo pyridones as Janus kinase inhibitors” (Merck Sharp & Dohme Corp., priority 2013, dated 2017).

SMILES strings stand for the structures.

In experiment [1] the target is JAK1 (Homo sapiens (Human), UniProt P23458). The experiment is described as follows: Jak biochemical HTRF assay, JAK1. The conditions noted are these: HTRF biochemical assay, recombinant GST-tagged catalytic domain; read-out: JAK1 IC50.
Experiment [2] deals with JAK2 (Homo sapiens (Human), UniProt O60674). The experiment is described as follows: Jak biochemical HTRF assay, JAK2. The following applies: HTRF biochemical assay, recombinant GST-tagged catalytic domain; read-out: JAK2 IC50. (In general: TR-FRET usually uses a lanthanide donor and a delayed reading to cut background.)
Sequence of JAK2 (O60674 849-1124): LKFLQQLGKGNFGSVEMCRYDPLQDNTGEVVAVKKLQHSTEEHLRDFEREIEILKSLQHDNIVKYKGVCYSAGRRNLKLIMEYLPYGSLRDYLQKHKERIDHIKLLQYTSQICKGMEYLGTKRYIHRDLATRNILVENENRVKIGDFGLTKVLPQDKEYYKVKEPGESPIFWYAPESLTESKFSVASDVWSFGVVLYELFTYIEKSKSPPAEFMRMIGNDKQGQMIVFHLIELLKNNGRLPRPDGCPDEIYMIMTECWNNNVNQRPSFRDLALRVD

Sequence of JAK1 (P23458 875-1153): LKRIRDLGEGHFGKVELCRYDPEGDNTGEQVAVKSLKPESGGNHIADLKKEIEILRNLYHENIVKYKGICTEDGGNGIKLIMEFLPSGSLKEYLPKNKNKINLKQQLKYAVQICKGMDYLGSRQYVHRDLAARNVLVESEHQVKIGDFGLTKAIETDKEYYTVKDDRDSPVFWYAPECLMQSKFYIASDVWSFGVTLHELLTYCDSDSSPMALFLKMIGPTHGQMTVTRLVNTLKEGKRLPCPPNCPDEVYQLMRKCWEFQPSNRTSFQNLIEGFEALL

Regarding `CC1(C)Cc2cc(Nc3nn([C@H]4CCCC[C@@H]4C#N)c4cc[nH]c(=O)c34)ccc2S1(=O)=O` [Example 21-1, (1S,2S)-2-(3-((2,2-Dimethyl-1,1-dioxido-2,3-dihydrobenzo[b]thiophen-5-yl)amino)-4-oxo-4,5-dihydro-1H-pyrazolo[4,3-c]pyridin-1-yl)cyclohexanecarbonitrile], the IC50 (commonly the concentration that gives 50% inhibition) amounted to 0.056 nM in experiment [1] and 0.28 nM in experiment [2].
With `N#C[C@H]1CCCC[C@@H]1n1nc(Nc2ccc3c(c2)CC2(CCCCC2)S3(=O)=O)c2c(=O)[nH]ccc21` [Example 21-2, (1S,2S)-2-(3-((1,1-Dioxido-3H-spiro[benzo[b]thiophene-2,1′-cyclohexan]-5-yl)amino)-4-oxo-4,5-dihydro-1H-pyrazolo[4,3-c]pyridin-1-yl)cyclohexanecarbonitrile], the IC50 in experiment [1] came to 0.12 nM; in experiment [2] it was 0.38 nM.
For the compound `N#C[C@H]1CCCC[C@@H]1n1nc(Nc2ccc3c(c2)CC2(CCOCC2)S3(=O)=O)c2c(=O)[nH]ccc21` [Example 21-3, (1S,2S)-2-{3-[(1,1-dioxido-2′,3′,5′,6′-tetrahydro-3H-spiro[1-benzothiophene-2,4′-pyran]-5-yl)amino]-4-oxo-4,5-dihydro-1H-pyrazolo[4,3-c]pyridin-1-yl}cyclohexanecarbonitrile], the IC50 in experiment [1] worked out at 0.069 nM; in experiment [2], 0.18 nM.
